Measurements taken from patent US20210330736A1 (UNIVERSITEIT VAN AMSTERDAM, priority 2018, published 2021).
Bridges are numbered along the chain shown (N, C = ends). Where no end group is shown, it is not given here.

How the values were obtained:
[1] = test system: Ser40 phosphorylation of Th in MN9D cells; experiment: Th Ser40 phosphorylation in MN9D cells (western blot, P-Ser40/total Th); format: cell-based
Method: FIG. 6. PDE2a is an important effector regulating Ser40 phosphorylation in MN9D cells. MN9D cultures were treated with IBMX or BAY-60-7550 (50 μM), a PDE2A-selective inhibitor. Cells were analyzed on western-blot for phosphorylation of Ser40 , total Th, and actin.
(§1) FIG. 7. PDE2a is an important effector regulating Ser40 phosphorylation in MN9D cells. BAY-60-7550 dose-curve and representative examples in MN9D (n=9, red) and HEK cells (n=4, blue) (Mean±SEM). Cells were treated with various concentrations of BAY 60-7750 and analyzed for Th phosphorylation on Ser40 , total Th and actin.
FIG. 10. PDE11 is an important effector regulating Ser40 phosphorylation in MN9D cells. BC 11-38 dose-curve and representative examples in MN9D (n=2) (Mean±SEM). IBMX served as a control and was used at 100 μM. Cell were analyzed for phosphorylation of Th on Ser40 and total Th was used as a loading control to determine phosphorylation specific effects.
24 hours prior to the administration of the different compounds, cells were serum-starved with DMEM medium supplemented with L-glutamine and Pen&Strep. Unless otherwise stated, the concentration of the different reagents is reported in Table 1 and the duration of the treatment was 1 hour.
Cells were harvested in 150 μL of Laemmli sample buffer (2% SDS, 10% glycerol, 60 mM Tris-Cl pH 6.8, 0.01% bromophenol blue, 50 mM freshly added DTT). Wells were duplicated in pairs and pooled into the same tubes to minimize variability. Samples were sonicated at maximum potency during 3 minutes, heated at 95° C. for 5 minutes and spun down briefly before loading. Running gels were 10% polyacrylamide except for the GUCY2C detection, which was optimal in 7% gels (375 mM Tris-Cl pH 8.8, 0.1% APS, 0.1% SDS, 0.04% TEMED). Stacking gels were 5% polyacrylamide (125 mM Tris-Cl pH 6.8, 0.1% APS, 0.1% SDS, 0.04% TEMED).
Up to 35 μL of sample was loaded in each slot and run in the presence of tris-glycine buffer and 0.1% SDS. Running conditions were 100 V during the first 20 minutes, followed by 160 V until the migration front reached the bottom of the gel. The transference was performed at 100 V onto 0.2 μm nitrocellulose membranes, in the presence of tris-glycine buffer and 20% methanol. The blotting duration was 140 minutes except for the detection of GUCY2C, which was transferred during 240 minutes in the presence of 0.1% SDS. Membranes were then submerged in Ponceau S solution to check blotting efficiency (0.1% Ponceau S, 5% acetic acid). After several washings with DEMI water, blots were incubated during 1 hour in the presence of 5% milk powder and TBS-T (154 mM NaCl, 49.5 mM Tris-Cl pH 7.4, 0.1% Tween-20). The incubation with the primary antibodies was performed O/N at 4° C. in TBS-T (consult Table 2 for dilution and species). Membranes were rinsed in TBS-T during 1 hour to remove the excess antibody. The incubation with the secondary antibodies took place during 60 minutes at room temperature (1:10,000 dilution in TBS-T, with the exception of the goat secondary which was diluted 1:20,000). Secondary antibodies were fused to the horseradish peroxidase and raised against the host species of the primary antibody. After additional washings during 1 hour, blots were exposed to an enhanced chemiluminescence solution and the signal was detected using an Odyssey imager (LI-COR). Band densitometry was performed with LI-COR Image Studio Lite. For graph quantifications, ‘Fold Change’ represents the ratio P-Ser40/Total Th. Statistical comparisons between pair of groups correspond to unpaired Student's t-tests, as calculated with GraphPad Prism. Asterisks denote the following p-values: *<0.05, **<0.01, ***<0.001, ****<0.0001.
IBMX is a non-selective PDE inhibitor, therefore we investigated the effect of inhibiting a specific PDE selectively on Ser40 phosphorylation. To study the effect of PDE2A inhibition on Ser40 phosphorylation we treated the dopaminergic cell-line MN9D with Bay BAY-60-7550 and analyzed the effects. […]

GUCY2C = GUCY2C (Homo sapiens, UniProt P25092); experiment: Th Ser40 phosphorylation in HEK cells co-transfected with Th and GUCY2C (western blot); format: cell-based; set-up: expressed in transfected cells; host or cells: HEK cells (ATCC), calcium-phosphate transfection, co-transfected with mouse Th; details: guanylin 10 μM, uroguanylin 1 μM, IBMX 100 μM, 1 hour
Method: FIG. 4. GUCY2C activation increases Ser40 phosphorylation. Immunocytochemistry images (A) and western blotting analysis (B) of HEK cultures transfected with Th or Th+GUCY2C. (C) Co-transfected HEK cells were treated with guanylin (G) or uroguanylin (UroG) and changes in Ser40 phosphorylation were studied. The graph represents the statistical analysis (n=3 for Control, n=6 for Guanylin, n=9 for Uroguanylin; Mean±SEM). Unpaired Student's t-test (p-value: **<0.01).
FIG. 5. […] (A) HEK cultures were treated with guanylin, in the presence or absence of IBMX. […] Unpaired Student's t-test (p-values: ****<0.0001, **<0.01, *<0.05). (B) HEK cells were co-transfected with Th and either the wt GUCY2C or a gain-of-function mutant (R792S). Ser40 phosphorylation was studied following guanylin treatment (G). […] Unpaired Student's t-test (p-values: ***<0.001, **<0.01).
(§2) HEK cells were maintained in 100-mm Petri dishes and grown in DMEM medium supplemented with L-glutamine, penicillin-streptomycin (Pen&Strep) and 10% heat-inactivated fetal bovine serum (HIFBS). Growing conditions were 37° C. and 5% CO2. For every-other-day passages, HEK cultures were split at a 1:3 dilution. From Friday to Monday, the split proportion was doubled for all cell lines. For passaging, cultures were rinsed with PBS and incubated with 1 mL of trypsin during 5 minutes. Cells were resuspended in growth medium and finally split to the proper dilution. The experiments were performed in 12-well plates. For immunocytochemistry analysis, sterile 18-mm coverslips were added prior to the plating. 500 !μL of cell resuspension was seeded in each well. If experiments were to be performed 48 hours after the plate preparation, 1:5 was the seeding ratio for HEK cells. When the experiments took place 96 hours post-plating, 1:7 was the working dilution for HEK cells. Unless otherwise stated, HEK cultures were processed 96 hours post-plating.
HEK cells were transfected using the calcium-phosphate method. 12-well plates were refreshed with 500 μL of growth medium before transfection. […]

[2] = target: GUCY2C R792S gain-of-function mutant (human) (UniProt P25092)
[3] = test system: Ser40 phosphorylation of Th in HEK cells transfected with Th; experiment: Th Ser40 phosphorylation in HEK cells transfected with Th (western blot); format: cell-based; details: HEK transfected with Th, 500 μM, 48 hours post-plating
Method: FIG. 3. HEK cells are a suitable model to study GUCY2C-induced Ser40 phosphorylation. (A) RT-qPCR data from intact HEK extracts. Input material was 10 ng of total RNA. Cp corresponds to the cycle number in which the expression starts to be considered positive. (−) represents the water control, which is negative in every case. (B) HEK cultures were transfected with Th and treated with a cGMP analogue 48 hours post-plating. Changes in Ser40 phosphorylation were studied. The graph represents the statistical analysis (n=6; Mean±SEM). Unpaired Student's t-test (p-value: ****<0.0001). Hereon, ‘Fold Change’ corresponds to the ratio P-Ser40/Total Th.
as §1, §2
HEK cells were transfected using the calcium-phosphate method. […]

PDE7 = details: cited from earlier work
[4] = target: mouse GUCY2C (endogenous, in mouse striatal slices) (mouse, UniProt Q3UWA6); experiment: cell-based or functional assay

Sequence of GUCY2C (P25092 24-1073): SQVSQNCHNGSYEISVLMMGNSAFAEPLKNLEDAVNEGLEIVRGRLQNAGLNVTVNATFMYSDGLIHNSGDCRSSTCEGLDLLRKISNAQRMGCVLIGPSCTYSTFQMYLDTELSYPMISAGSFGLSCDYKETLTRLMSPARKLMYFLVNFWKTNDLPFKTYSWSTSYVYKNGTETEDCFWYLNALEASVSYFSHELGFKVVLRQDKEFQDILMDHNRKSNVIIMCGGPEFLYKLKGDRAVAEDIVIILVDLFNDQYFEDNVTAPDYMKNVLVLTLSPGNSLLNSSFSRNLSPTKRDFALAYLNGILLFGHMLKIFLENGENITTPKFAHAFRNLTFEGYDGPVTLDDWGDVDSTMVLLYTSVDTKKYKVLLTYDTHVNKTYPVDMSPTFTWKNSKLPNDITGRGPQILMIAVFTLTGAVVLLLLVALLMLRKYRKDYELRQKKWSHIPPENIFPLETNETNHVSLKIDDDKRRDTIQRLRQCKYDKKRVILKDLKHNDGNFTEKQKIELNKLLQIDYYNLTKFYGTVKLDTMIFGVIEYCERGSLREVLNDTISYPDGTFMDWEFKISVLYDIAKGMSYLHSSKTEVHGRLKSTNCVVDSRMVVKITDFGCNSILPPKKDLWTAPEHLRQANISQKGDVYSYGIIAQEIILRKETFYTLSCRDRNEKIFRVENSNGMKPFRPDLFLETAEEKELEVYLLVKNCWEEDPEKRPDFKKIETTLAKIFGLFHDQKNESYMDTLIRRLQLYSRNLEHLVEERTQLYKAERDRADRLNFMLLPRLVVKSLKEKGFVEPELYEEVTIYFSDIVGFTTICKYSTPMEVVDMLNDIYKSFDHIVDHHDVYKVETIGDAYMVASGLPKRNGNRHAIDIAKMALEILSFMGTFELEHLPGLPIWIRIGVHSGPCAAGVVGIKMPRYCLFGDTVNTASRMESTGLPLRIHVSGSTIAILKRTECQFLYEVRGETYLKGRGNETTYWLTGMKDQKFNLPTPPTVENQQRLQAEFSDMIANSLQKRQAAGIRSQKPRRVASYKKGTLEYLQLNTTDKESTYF

CCCSc1nc2c(c(=O)n1-c1ccccc1)SCC2 [BC 11-38]
performance versus IBMX on Ser40 phosphorylation ([1]; IBMX 100 μM as control): performed less well than the positive control IBMX
phosphorylation of Th on Ser40 as compared to total Th (in words) ([1]; dose-curve): increase in the phosphorylation of Th on Ser40

CC(C)Cn1c(=O)n(C)c(=O)c2[nH]cnc21 [IBMX, 3-isobutyl-1-methylxanthine]
P-Ser40 levels / Ser40 phosphorylation (in words) (GUCY2C): potentiated the increase in Ser40 phosphorylation

guanylin (Example 1) (ligand)
Ser40 phosphorylation of Th upon guanylin treatment (western blot) (fold higher than with the wt receptor) [2]: 1.5

Nc1nc2c(nc(Br)n2[C@@H]2O[C@@H]3COP(=O)(O)O[C@H]3[C@H]2O)c(=O)[nH]1 [Peptide 8-Bromo-cGMP, 8-Bromo-cGMP]
P-Ser40 levels upon compound administration [3]: small but significant increase

uroguanylin: natural agonistic ligand of GUCY2C, 16 amino acid peptide (NDDCELCVNVACTGCL; disulfide 4-12, 7-15; UniProt Q16661 97-112, looked up)
P-Ser40 levels / Ser40 phosphorylation (in words) (GUCY2C): increase P-Ser40 levels

OCCN(CCO)c1nc(N2CCCCC2)c2nc(N(CCO)CCO)nc(N3CCCCC3)c2n1 [Dipyridamole]
IC50 (PDE7): 600 nM

B1: peptide 1 (peptide)
peptide: H-NDDCELCVNVACTGCL-OH
modifications: disulfide 4-12, 7-15
SMILES: CC(C)C[C@H](NC(=O)[C@@H]1CSSC[C@@H]2NC(=O)[C@H](CC(C)C)NC(=O)[C@H](CCC(=O)O)NC(=O)[C@@H](NC(=O)[C@H](CC(=O)O)NC(=O)[C@H](CC(=O)O)NC(=O)[C@@H](N)CC(N)=O)CSSC[C@H](NC(=O)[C@H](C)NC(=O)[C@H](C(C)C)NC(=O)[C@H](CC(N)=O)NC(=O)[C@H](C(C)C)NC2=O)C(=O)N[C@@H]([C@@H](C)O)C(=O)NCC(=O)N1)C(=O)O
P-S40 TH/TTH, fold change (average), mouse striatal slices, 10 µM, 1 h (WES) [4]: 1.11 fold change (average)

B2: peptide 3 (peptide)
peptide: H-NDDCELCVNVACTGC-OH
modifications: disulfide 4-12, 7-15
SMILES: CC(C)C[C@@H]1NC(=O)[C@H](CCC(=O)O)NC(=O)[C@@H](NC(=O)[C@H](CC(=O)O)NC(=O)[C@H](CC(=O)O)NC(=O)[C@@H](N)CC(N)=O)CSSC[C@@H]2NC(=O)[C@H](C)NC(=O)[C@H](C(C)C)NC(=O)[C@H](CC(N)=O)NC(=O)[C@H](C(C)C)NC(=O)[C@H](CSSC[C@@H](C(=O)O)NC(=O)CNC(=O)[C@H]([C@@H](C)O)NC2=O)NC1=O
P-S40 TH/TTH, fold change (average), mouse striatal slices, 10 µM, 1 h (WES) [4]: 1.2 fold change (average)
